Patent US20240024647A1, “MUCOSA PERFORATION” (LTS LOHMANN THERAPIE-SYSTEME AG, priority 2020, published 2024)
Structures can show the parent of a compound that is named as a salt.

Tests used:
[1] = In vitro permeation by Franz diffusion cells, mucosa with versus without steel microneedle system (AdminPatch)
Procedure: (§1) The following test series with the selected active ingredients in each case were performed within the scope of a typical in vitro permeation by means of Franz diffusion cells (volume 10 mL) at 37° C. The used acceptor medium was replaced completely for a new one at predetermined replacement times, and the content of permeated active ingredient amount in these acceptor solutions was determined by means of HPLC.
The contact pressure was 3 N by thumb pressure, monitored by means of a Roberval balance. The pressing time was 10 sec.
A total of 187 microneedles were applied to an area of 0.785 cm^2 (microneedle density=238 per cm^2).
For Example 4, the donor solution was injected (900 μl) onto or into the used dentistry tamponade (length and diameter 1 cm each). The microneedle system was fixed to the underside of the tamponade and was applied to the mucosa surface perpendicularly through the head of the Franz cells and fixed in a defined position by a suitable stopper and with moderate pressure.
Phosphate buffer (pH 5.5) was used as acceptor medium and an addition of 2 wt. % Tween® 20 was used as organic solvent to maintain “sink” conditions. (sink=current solubility at time t of an active ingredient in an acceptor medium of at most 30% of its saturation solubility in this acceptor medium)
A saturated solution of riociguat in clove oil (Primavera® clove bud organic essential oil, Oy-Mittelberg, Germany) was used as donor solution.
(§2) Dermatomised skin from the oesophagus of a pig with a layer thickness of 400 μm was used as skin model.
0.025 molar HEPES buffer (pH 7.4) was used as acceptor medium.
Phosphate buffer (pH 5.5) was used as acceptor medium and an addition of 2 wt. % Tween® 20 was used as organic solvent to maintain “sink” conditions. […]
The surface of the mucosa was treated with the “AdminPatch™” microneedle system (needle length 600 μm) from the company “nanobioSciences” (CA, USA) made of steel with a contact pressure of 3 N by thumb pressure, monitored by means of a Roberval balance for 10 sec. […]

[2] = Solubility of the active ingredient in the acceptor medium; type: physicochemical
[3] = In vitro permeation by Franz diffusion cells, dissolving microneedle system loaded with active ingredient, applied into the mucosa versus in reverse
Procedure: as §1, with “HPLC. […]” for “HPLC.”
For preparation, sumatriptan succinate, polyvinylpyrrolidone, Polysorbate 80 and glycerol were dissolved in water with the proportions 5:20:1:1:73 (in each case in wt. %). The finished solution was poured into negative needle moulds made of silicone, the surface of which was coated with a thin platinum layer by vacuum metallisation. The negative moulds were then dried overnight at room temperature. The dried microneedle systems were carefully pressed out from the dies after the drying process and stored under exclusion of moisture until their further use. The active ingredient content was 4.25 mg sumatriptan succinate per 0.785 cm^2 of system or 5.41 mg/cm^2.
The length of the microneedles of the used microneedle system was 500 μm. A total of 600 microneedles were applied to an area of 0.785 cm^2 (microneedle density=764 per cm^2).
as §2
The microneedle system remained in the mucosa throughout the permeation period, the cell head additionally also having been filled with lead balls in order to simulate the in vivo contact pressure (for example between mandible and oral mucosa) in the oral cavity. As protection for the dissolving microneedle system, a separation film based on siliconised PET (polyethylene terephthalate) was also introduced in between in front of the lead balls.

[4] = dissolving microneedle system loaded with sumatriptan base, acceptor phosphate buffer pH 6.0 + 2 wt. % Tween 20, FIG. 9

## C=C(C)[C@@H]1CCC(C)=C[C@H]1c1c(O)cc(CCCCC)cc1O [cannabidiol]
[1]; saturated cannabidiol solution in clove oil, dentistry tamponade with microneedle system, acceptor phosphate buffer pH 5.5 + 2 wt. % Tween 20, FIG. 4
  active ingredient flux after pretreatment with a microneedle system, factor higher in comparison to administration without pretreatment: 2.0

## CNS(=O)(=O)Cc1ccc2[nH]cc(CCN(C)C)c2c1 [sumatriptan base]
[2]; phosphate buffer (pH 6.0) with 2 wt. % Tween 20
  solubility in acceptor medium: very easily dissolved
[3]; [4]
  active ingredient flux in the comparative example (system applied in reverse, not penetrating into the mucosa): not possible to measure an active ingredient flux
  active ingredient flux with the microneedle system applied in the mucosa: high active ingredient flux could be observed

## CCCCCc1cc(O)c2c(c1)OC(C)(C)[C@@H]1CCC(C)=C[C@@H]21 [tetrahydrocannabinol]
[1]; saturated tetrahydrocannabinol solution in clove oil, acceptor phosphate buffer pH 5.5 + 2 wt. % Tween 20, FIG. 3
  time after which permeated active ingredient could be detected without pretreatment: 3 h
[1]; saturated tetrahydrocannabinol solution in clove oil, value after 3 hours, FIG. 3
  permeated active ingredient without pretreatment, factor lower in comparison to pretreated mucosa: 5

## CC(=O)O[C@]1(C(C)=O)CC[C@H]2[C@@H]3CCC4=CC(=O)CCC4=C3[C@@H](c3ccc(N(C)C)cc3)C[C@@]21C [ulipristal acetate]
[2]; phosphate buffer (pH 7.4) with 2 wt. % Tween 20
  solubility in acceptor medium: very easily dissolved

## CN1CCc2cccc3c2[C@H]1Cc1ccc(O)c(O)c1-3 [apomorphine hydrochloride]
[2]; phosphate buffer (pH 6.8) with 0.1 wt. % L-ascorbic acid
  solubility in acceptor medium: very easily dissolved

## CNS(=O)(=O)Cc1ccc2[nH]cc(CCN(C)C)c2c1 [sumatriptan succinate]
[2]; phosphate buffer (pH 7.4) without further additives
  solubility in acceptor medium: very easily dissolved
[3]; pig, 10 min, pH 7.4
  first permeation value after 10 min, factor higher in comparison to the comparative example: approximately 4
[3]; pig, pH 7.4
  active ingredient flux with the microneedle system applied in the mucosa, factor higher in comparison to the system without penetration into the mucosa: 2.0
